Test system: MV-4-11 cells
Assay: Gene expression microarray analysis (Affymetrix PrimeView) and GSEA
Type: cell-based, human
Design: RFU PODN (11730768_x_at) / Fold change /veh PODN (11730768_x_at) / RFU LINC00158 (11744669_a_at) / Fold change /veh LINC00158 (11744669_a_at) / RFU DUSP10 (11751237_a_at) / Fold change /veh DUSP10 (11751237_a_at) / RFU ID3 (11757404_x_at) / Fold change /veh ID3 (11757404_x_at) / RFU PLEKHG5 (11737974_s_at) / Fold change /veh PLEKHG5 (11737974_s_at) / RFU LRRC4B (11730491_at) / Fold change /veh LRRC4B (11730491_at) / RFU GIMAP4 (11747438_a_at) / Fold change /veh GIMAP4 (11747438_a_at) / RFU KRT8 (11758183_x_at) / Fold change /veh KRT8 (11758183_x_at) / RFU CNN1 (11734310_a_at) / Fold change /veh CNN1 (11734310_a_at) / RFU VPS37D (11726825_at) / Fold change /veh VPS37D (11726825_at) / RFU C10orf10 (11716522_x_at) / Fold change /veh C10orf10 (11716522_x_at) / RFU KIR2DL2 /// KIR2DL4 /// KIR2DL5A /// KIR2DL5B /// KIR2DS1 /// KIR2DS2 /// KIR2DS3 /// KIR2DS4 /// KIR3DL3 /// KIR3DL3 /// KIR3DS1 (11738374_at) / Fold change /veh KIR2DL2 /// KIR2DL4 /// KIR2DL5A /// KIR2DL5B /// KIR2DS1 /// KIR2DS2 /// KIR2DS3 /// KIR2DS4 /// KIR3DL3 /// KIR3DL3 /// KIR3DS1 (11738374_at) / RFU C1QL1 (11718748_at) / Fold change /veh C1QL1 (11718748_at) / RFU TMPRSS4 (11747572_a_at) / Fold change /veh TMPRSS4 (11747572_a_at) / RFU HAMP (11756126_x_at) / Fold change /veh HAMP (11756126_x_at) / RFU RNFT2 (11725882_a_at) / Fold change /veh RNFT2 (11725882_a_at) / RFU NR4A2 (11747474_a_at) / Fold change /veh NR4A2 (11747474_a_at) / RFU ABCC12 (11746883_a_at) / Fold change /veh ABCC12 (11746883_a_at) / RFU TMEM136 (11760407_x_at) / Fold change /veh TMEM136 (11760407_x_at) / RFU CLDN22 /// WWC2 (11732394_at) / Fold change /veh CLDN22 /// WWC2 (11732394_at) / RFU HLA-DPB1 (11760878_x_at) / Fold change /veh HLA-DPB1 (11760878_x_at) / RFU SPINT1 (11716480_a_at) / Fold change /veh SPINT1 (11716480_a_at) / RFU GAP43 (11754022_s_at) / Fold change /veh GAP43 (11754022_s_at) / RFU A4GNT (11735810_at) / Fold change /veh A4GNT (11735810_at) / RFU PRB3 (11715151_x_at) / Fold change /veh PRB3 (11715151_x_at) / RFU TUBB4B (11761932_at) / Fold change /veh TUBB4B (11761932_at) / RFU CAPN14 (11732068_a_at) / Fold change /veh CAPN14 (11732068_a_at) / RFU TMCC2 (11721928_a_at) / Fold change /veh TMCC2 (11721928_a_at) / RFU IRGQ (11745062_a_at) / Fold change /veh IRGQ (11745062_a_at) / RFU FAM174B (11720279_a_at) / Fold change /veh FAM174B (11720279_a_at) / RFU TMPRSS4 (11748680_a_at) / Fold change /veh TMPRSS4 (11748680_a_at) / RFU FAM212B (11763350_a_at) / Fold change /veh FAM212B (11763350_a_at) / RFU PLEKHG5 (11743358_a_at) / Fold change /veh PLEKHG5 (11743358_a_at) / RFU ZSCAN30 (11745921_a_at) / Fold change /veh ZSCAN30 (11745921_a_at) / RFU CMKLR1 (11741424_a_at) / Fold change /veh CMKLR1 (11741424_a_at) / RFU LOC101060620 /// MAPK8IP1 (11723275_at) / Fold change /veh LOC101060620 /// MAPK8IP1 (11723275_at) / RFU SPTSSB (11747773_x_at) / Fold change /veh SPTSSB (11747773_x_at) / RFU PRSS12 (11739890_at) / Fold change /veh PRSS12 (11739890_at) / RFU BIN1 (11741810_x_at) / Fold change /veh BIN1 (11741810_x_at) / RFU WNT11 (11732464_a_at) / Fold change /veh WNT11 (11732464_a_at) / RFU C10orf10 (11716521_a_at) / Fold change /veh C10orf10 (11716521_a_at) / RFU C5orf56 (11738089_at) / Fold change /veh C5orf56 (11738089_at) / RFU CYB561 (11721691_x_at) / Fold change /veh CYB561 (11721691_x_at) / RFU ANKRD19P (11752326_a_at) / Fold change /veh ANKRD19P (11752326_a_at) / RFU OR2T12 /// OR2T33 /// OR2T8 (11738714_s_at) / Fold change /veh OR2T12 /// OR2T33 /// OR2T8 (11738714_s_at) / RFU VCAN (11748164_a_at) / Fold change /veh VCAN (11748164_a_at) / RFU JSRP1 (11732532_at) / Fold change /veh JSRP1 (11732532_at) / RFU KRTAP10-11 (11738290_x_at) / Fold change /veh KRTAP10-11 (11738290_x_at) / RFU MYO3A (11730013_a_at) / Fold change /veh MYO3A (11730013_a_at) / RFU EBF3 (11725865_a_at) / Fold change /veh EBF3 (11725865_a_at) / RFU CAMK2N1 (11719241_x_at) / Fold change /veh CAMK2N1 (11719241_x_at) / RFU C5orf56 (11738088_a_at) / Fold change /veh C5orf56 (11738088_a_at) / RFU OLFML3 (11715873_a_at) / Fold change /veh OLFML3 (11715873_a_at) / RFU LOC100653217 /// NTM (11731650_a_at) / Fold change /veh LOC100653217 /// NTM (11731650_a_at) / RFU MAPK11 (11762145_a_at) / Fold change /veh MAPK11 (11762145_a_at) / RFU FIZ1 (11724087_x_at) / Fold change /veh FIZ1 (11724087_x_at) / RFU OASL (11726364_x_at) / Fold change /veh OASL (11726364_x_at) / RFU SOX15 (11748057_x_at) / Fold change /veh SOX15 (11748057_x_at) / RFU CD79A (11719716_a_at) / Fold change /veh CD79A (11719716_a_at) / RFU HIST1H1D (11736915_at) / Fold change /veh HIST1H1D (11736915_at) / RFU CASKIN2 (11723855_a_at) / Fold change /veh CASKIN2 (11723855_a_at) / RFU LOC730098 (11760151_x_at) / Fold change /veh LOC730098 (11760151_x_at) / RFU OR4N2 (11742367_at) / Fold change /veh OR4N2 (11742367_at) / RFU PRRT2 (11749266_a_at) / Fold change /veh PRRT2 (11749266_a_at) / RFU SNX32 (11753110_a_at) / Fold change /veh SNX32 (11753110_a_at) / RFU CDHR5 (11726645_a_at) / Fold change /veh CDHR5 (11726645_a_at) / RFU RCAN1 (11760418_a_at) / Fold change /veh RCAN1 (11760418_a_at) / RFU FAM167A (11723789_a_at) / Fold change /veh FAM167A (11723789_a_at) / RFU FAM26E (11764081_at) / Fold change /veh FAM26E (11764081_at) / RFU ISYNA1 (11749810_s_at) / Fold change /veh ISYNA1 (11749810_s_at) / RFU ACY1 (11761880_at) / Fold change /veh ACY1 (11761880_at) / RFU 11764098_at / Fold change /veh 11764098_at / RFU SAMD14 (11745864_x_at) / Fold change /veh SAMD14 (11745864_x_at) / RFU NPB (11741838_a_at) / Fold change /veh NPB (11741838_a_at) / RFU TMPRSS6 (11731388_a_at) / Fold change /veh TMPRSS6 (11731388_a_at) / RFU KRTAP10-2 (11738614_at) / Fold change /veh KRTAP10-2 (11738614_at) / RFU ARHGAP8 /// PRR5-ARHGAP8 (11727945_x_at) / Fold change /veh ARHGAP8 /// PRR5-ARHGAP8 (11727945_x_at) / RFU KRTAP5-7 /// NADSYN1 (11734609_at) / Fold change /veh KRTAP5-7 /// NADSYN1 (11734609_at) / RFU RASL12 (11751679_a_at) / Fold change /veh RASL12 (11751679_a_at) / RFU CDKN2B (11736163_a_at) / Fold change /veh CDKN2B (11736163_a_at) / RFU PRF1 (11729649_at) / Fold change /veh PRF1 (11729649_at) / RFU, ZNF638 /// ZNF638-IT1 / Fold change vs veh, ZNF638 /// ZNF638-IT1 / RFU, PANK3 / Fold change vs veh, PANK3 / RFU, SH3YL1 / Fold change vs veh, SH3YL1 / RFU, ZEB2 / Fold change vs veh, ZEB2 / RFU, NRIP1 / Fold change vs veh, NRIP1 / RFU, PTTG1IP / Fold change vs veh, PTTG1IP / RFU, CAPN2 / Fold change vs veh, CAPN2 / RFU, MED14 / Fold change vs veh, MED14 / RFU, SNORA58 / Fold change vs veh, SNORA58 / RFU, C1orf63 / Fold change vs veh, C1orf63 / RFU, LRRFIP1 / Fold change vs veh, LRRFIP1 / RFU, NDUFAF7 / Fold change vs veh, NDUFAF7 / RFU, SLC12A2 / Fold change vs veh, SLC12A2 / RFU, IBTK / Fold change vs veh, IBTK / RFU, ESF1 / Fold change vs veh, ESF1 / Fold change vs veh, TMEM50B / RFU, TAOK1 / Fold change vs veh, TAOK1 / RFU, ACBD3 / Fold change vs veh, ACBD3 / RFU, TMA16 / Fold change vs veh, TMA16 / RFU, RWDD3 / Fold change vs veh, RWDD3 / RFU, BCAT1 / Fold change vs veh, BCAT1 / RFU, EDEM3 / Fold change vs veh, EDEM3 / RFU, TMEM33 / Fold change vs veh, TMEM33 / RFU, WDR75 / Fold change vs veh, WDR75 / RFU, AHCTF1 / Fold change vs veh, AHCTF1 / RFU, TFRC / Fold change vs veh, TFRC / RFU, ZDHHC17 / Fold change vs veh, ZDHHC17 / RFU, NOM1 / Fold change vs veh, NOM1 / RFU, ARL8B / Fold change vs veh, ARL8B / RFU, ZBTB11 / Fold change vs veh, ZBTB11 / RFU, TAMM41 / Fold change vs veh, TAMM41 / RFU, KIAA1704 /// LOC100996395 / Fold change vs veh, KIAA1704 /// LOC100996395 / RFU, ING1 / Fold change vs veh, ING1 / RFU, TRMT61B / Fold change vs veh, TRMT61B / RFU, FUBP3 / Fold change vs veh, FUBP3 / RFU, TP53 / Fold change vs veh, TP53 / RFU, TNKS2 / Fold change vs veh, TNKS2 / RFU, ZFP14 / Fold change vs veh, ZFP14 / RFU, ACTR2 / Fold change vs veh, ACTR2 / RFU, PPP3R1 / Fold change vs veh, PPP3R1 / RFU, PIK3R1 / Fold change vs veh, PIK3R1 / RFU, HNRNPA1 / Fold change vs veh, HNRNPA1 / RFU, RNF170 / Fold change vs veh, RNF170 / RFU, ZNF28 / Fold change vs veh, ZNF28 / RFU, RNGTT / Fold change vs veh, RNGTT / RFU, OGT / Fold change vs veh, OGT / RFU, BRD1 / Fold change vs veh, BRD1 / RFU, MARS / Fold change vs veh, MARS / RFU, ZNF655 / Fold change vs veh, ZNF655 / RFU, FAHD1 / Fold change vs veh, FAHD1 / RFU, BDP1 / Fold change vs veh, BDP1 / RFU, LRRCC1 / Fold change vs veh, LRRCC1 / RFU, ARID1A / Fold change vs veh, ARID1A / RFU, ZNF146 / Fold change vs veh, ZNF146 / RFU, ZNF330 / Fold change vs veh, ZNF330 / RFU, GPN3 / Fold change vs veh, GPN3 / RFU, C9orf123 / Fold change vs veh, C9orf123 / RFU, N4BP2L2 / Fold change vs veh, N4BP2L2 / RFU, ARFIP1 / Fold change vs veh, ARFIP1 / RFU, FAM179B / Fold change vs veh, FAM179B / RFU, BCL10 / Fold change vs veh, BCL10 / RFU, UHRF1BP1L / Fold change vs veh, UHRF1BP1L / RFU, BET1 / Fold change vs veh, BET1 / RFU, CNOT2 / Fold change vs veh, CNOT2 / RFU, ZNF268 / Fold change vs veh, ZNF268 / Fold change vs veh, ZNF507 / RFU, DGCR2 / Fold change vs veh, DGCR2 / RFU, WDSUB1 / Fold change vs veh, WDSUB1 / Fold change vs veh, HSP90B1 /// MIR3652 / RFU, ADSS / Fold change vs veh, ADSS / RFU, GK / Fold change vs veh, GK / RFU, ZNF148 / Fold change vs veh, ZNF148 / RFU, TAF9 / Fold change vs veh, TAF9 / RFU, SLC1A5 / Fold change vs veh, SLC1A5 / RFU, SLMO2 / Fold change vs veh, SLMO2 / RFU, ABCC4 / Fold change vs veh, ABCC4 / RFU, LOC101060439 /// RAP1B / Fold change vs veh, LOC101060439 /// RAP1B / RFU, RFX7 / Fold change vs veh, RFX7 / RFU, GTPBP10 / Fold change vs veh, GTPBP10 / RFU, CNEP1R1 / Fold change vs veh, CNEP1R1 / RFU, BIVM-ERCC5 /// ERCC5 / Fold change vs veh, BIVM-ERCC5 /// ERCC5 / RFU, ILF3 / Fold change vs veh, ILF3 / RFU 11762660_at / Fold change /veh 11762660_at / RFU VCAN (11757783_s_at) / Fold change /veh VCAN (11757783_s_at) / RFU DDX43 (11728927_at) / Fold change /veh DDX43 (11728927_at) / RFU KRT8 (11758188_x_at) / Fold change /veh KRT8 (11758188_x_at) / RFU NKD1 (11759106_at) / Fold change /veh NKD1 (11759106_at) / RFU SRD5A1 (11742802_a_at) / Fold change /veh SRD5A1 (11742802_a_at) / RFU TPSAB1 /// TPSB2 (11721975_s_at) / Fold change /veh TPSAB1 /// TPSB2 (11721975_s_at) / RFU GSTM3 (11746129_a_at) / Fold change /veh GSTM3 (11746129_a_at) / RFU IL23R (11737362_x_at) / Fold change /veh IL23R (11737362_x_at) / RFU TMEM51 (11727254_a_at) / Fold change /veh TMEM51 (11727254_a_at) / RFU PIWIL2 (11732686_x_at) / Fold change /veh PIWIL2 (11732686_x_at) / RFU ORM1 (11744905_x_at) / Fold change /veh ORM1 (11744905_x_at) / RFU CCDC152 (11743942_at) / Fold change /veh CCDC152 (11743942_at) / RFU ECM1 (11717891_a_at) / Fold change /veh ECM1 (11717891_a_at) / RFU IL23R (11748794_a_at) / Fold change /veh IL23R (11748794_a_at) / RFU TNFAIP8L3 (11732012_x_at) / Fold change /veh TNFAIP8L3 (11732012_x_at) / RFU MBOAT4 (11741988_at) / Fold change /veh MBOAT4 (11741988_at) / RFU 11764193_at / Fold change /veh 11764193_at / RFU TMEM53 (11763286_at) / Fold change /veh TMEM53 (11763286_at) / RFU MAGEB2 (11727129_at) / Fold change /veh MAGEB2 (11727129_at) / RFU TMEM200A (11744735_a_at) / Fold change /veh TMEM200A (11744735_a_at) / RFU CCDC152 (11751479_a_at) / Fold change /veh CCDC152 (11751479_a_at) / RFU FAM211A (11726209_a_at) / Fold change /veh FAM211A (11726209_a_at) / RFU RGS16 (11746705_a_at) / Fold change /veh RGS16 (11746705_a_at) / RFU VCAN (11755009_s_at) / Fold change /veh VCAN (11755009_s_at) / RFU RHOB (11743442_s_at) / Fold change /veh RHOB (11743442_s_at) / RFU RGS16 (11720943_a_at) / Fold change /veh RGS16 (11720943_a_at) / RFU RGS16 (11720944_at) / Fold change /veh RGS16 (11720944_at) / RFU, VPS4B / Fold change vs veh, VPS4B / RFU, CREB1 / Fold change vs veh, CREB1 / RFU, DNAJC13 / Fold change vs veh, DNAJC13 / RFU, GNAQ / Fold change vs veh, GNAQ / RFU, CDK5R1 / Fold change vs veh, CDK5R1 / RFU, ZRANB3 / Fold change vs veh, ZRANB3 / RFU, CUL4A / Fold change vs veh, CUL4A / RFU, CCNY / Fold change vs veh, CCNY / RFU, UFL1 / Fold change vs veh, UFL1 / RFU, COG3 / Fold change vs veh, COG3 / RFU, DIAPH2 / Fold change vs veh, DIAPH2 / RFU, SKA2 / Fold change vs veh, SKA2 / RFU, AFF3 / Fold change vs veh, AFF3 / RFU, LMF1 / Fold change vs veh, LMF1 / RFU, IPO11 / Fold change vs veh, IPO11 / RFU, DFFB / Fold change vs veh, DFFB / RFU, FOXP1 / Fold change vs veh, FOXP1 / RFU, CARD8 / Fold change vs veh, CARD8 / RFU, STRN3 / Fold change vs veh, STRN3 / RFU, ADK / Fold change vs veh, ADK / RFU, RASSF2 / Fold change vs veh, RASSF2 / RFU, WIPF1 / Fold change vs veh, WIPF1 / RFU, LARP1B / Fold change vs veh, LARP1B / RFU, RASA1 / Fold change vs veh, RASA1 / RFU, RB1 / Fold change vs veh, RB1 / RFU, PPFIA1 / Fold change vs veh, PPFIA1 / RFU, MAT2A / Fold change vs veh, MAT2A / RFU, CCT5 / Fold change vs veh, CCT5 / RFU, WDR92 / Fold change vs veh, WDR92 / RFU, CUX1 / Fold change vs veh, CUX1 / RFU, TTC7A / Fold change vs veh, TTC7A / RFU, TMEM135 / Fold change vs veh, TMEM135 / RFU, DEPTOR / Fold change vs veh, DEPTOR / RFU, CPM / Fold change vs veh, CPM / RFU, DNAJB6 / Fold change vs veh, DNAJB6 / RFU, CACNA2D3 / Fold change vs veh, CACNA2D3 / RFU, DTX4 / Fold change vs veh, DTX4 / RFU, TFCP2 / Fold change vs veh, TFCP2 / RFU, GMCL1 /// GMCL1P1 / Fold change vs veh, GMCL1 /// GMCL1P1 / RFU, AEBP2 / Fold change vs veh, AEBP2 / RFU, SNHG1 /// SNORD22 /// SNORD25 /// SNORD26 /// SNORD27 /// SNORD28 /// SNORD29 /// SNORD31 / Fold change vs veh, SNHG1 /// SNORD22 /// SNORD25 /// SNORD26 /// SNORD27 /// SNORD28 /// SNORD29 /// SNORD31 / Fold change (Aza/veh), C12orf56 (ProbeSet 11735607_a_at) / Fold change (ACY-1035/veh), C12orf56 (ProbeSet 11735607_a_at) / Fold change (Aza/veh), FGFR1OP (ProbeSet 11751329_s_at) / Fold change (ACY-1035/veh), FGFR1OP (ProbeSet 11751329_s_at) / Fold change (Aza/veh), VPS36 (ProbeSet 11739960_a_at) / Fold change (ACY-1035/veh), VPS36 (ProbeSet 11739960_a_at) / RFU SYPL1 (11715823_x_at) / Fold change /veh SYPL1 (11715823_x_at) / RFU IGFBP7 (11715501_s_at) / Fold change /veh IGFBP7 (11715501_s_at) / RFU REEP3 (11722064_at) / Fold change /veh REEP3 (11722064_at) / RFU IGLL1 (11728026_x_at) / Fold change /veh IGLL1 (11728026_x_at): dose or concentration left out as unconfirmed
Conditions: ProbeSet 11732154_at; LIST B

SMILES: Nc1ncn([C@@H]2O[C@H](CO)[C@@H](O)[C@H]2O)c(=O)n1 [azacitidine]
- RFU, OGT: 289.66 RFU
